Among the data in ChEMBL document CHEMBL5291721, “A preclinical secondary pharmacology resource illuminates target-adverse drug reaction associations of marketed drugs” (Nat Commun, 2023) are AC50 values, retold here.

Some targets named below: Cannabinoid receptor 1 (Homo sapiens, UniProt P21554); Melanocortin receptor 4 (Homo sapiens, UniProt P32245); Mu-type opioid receptor (Homo sapiens, UniProt P35372).
Experiment [1] has as its target 5-hydroxytryptamine receptor 2B (Homo sapiens, UniProt P41595).
For experiment [2], the target named is Neurotensin receptor type 1 (Homo sapiens, UniProt P30989).
Sequence of Neurotensin receptor type 1 (P30989 whole entry): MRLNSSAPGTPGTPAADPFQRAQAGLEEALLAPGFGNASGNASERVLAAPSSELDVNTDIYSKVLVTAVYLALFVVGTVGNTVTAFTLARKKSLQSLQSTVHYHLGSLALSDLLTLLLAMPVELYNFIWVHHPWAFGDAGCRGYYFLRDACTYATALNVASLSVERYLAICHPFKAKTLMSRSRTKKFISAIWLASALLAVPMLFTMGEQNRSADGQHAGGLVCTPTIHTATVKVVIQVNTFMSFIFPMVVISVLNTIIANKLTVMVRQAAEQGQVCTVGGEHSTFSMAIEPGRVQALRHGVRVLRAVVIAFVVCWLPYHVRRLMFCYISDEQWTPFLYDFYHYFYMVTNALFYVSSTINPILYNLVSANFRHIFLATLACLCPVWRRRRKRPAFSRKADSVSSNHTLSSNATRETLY
For experiment [3], the target named is Beta-3 adrenergic receptor (Homo sapiens, UniProt P13945).
Sequence of Beta-3 adrenergic receptor (P13945 whole entry): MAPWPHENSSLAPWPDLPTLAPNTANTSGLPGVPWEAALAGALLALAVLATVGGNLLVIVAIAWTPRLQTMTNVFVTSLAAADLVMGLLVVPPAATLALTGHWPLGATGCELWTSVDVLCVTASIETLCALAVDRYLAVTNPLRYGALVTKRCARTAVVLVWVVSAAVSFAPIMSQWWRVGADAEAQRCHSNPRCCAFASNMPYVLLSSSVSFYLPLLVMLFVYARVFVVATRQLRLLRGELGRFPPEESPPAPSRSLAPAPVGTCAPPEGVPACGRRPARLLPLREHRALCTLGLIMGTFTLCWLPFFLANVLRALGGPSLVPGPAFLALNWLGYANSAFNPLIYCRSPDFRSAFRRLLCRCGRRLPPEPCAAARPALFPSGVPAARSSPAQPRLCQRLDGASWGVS
For experiment [4], the target named is T1, Endothelin receptor type B (Homo sapiens, UniProt P24530).
T1 sequence (P24530 whole entry): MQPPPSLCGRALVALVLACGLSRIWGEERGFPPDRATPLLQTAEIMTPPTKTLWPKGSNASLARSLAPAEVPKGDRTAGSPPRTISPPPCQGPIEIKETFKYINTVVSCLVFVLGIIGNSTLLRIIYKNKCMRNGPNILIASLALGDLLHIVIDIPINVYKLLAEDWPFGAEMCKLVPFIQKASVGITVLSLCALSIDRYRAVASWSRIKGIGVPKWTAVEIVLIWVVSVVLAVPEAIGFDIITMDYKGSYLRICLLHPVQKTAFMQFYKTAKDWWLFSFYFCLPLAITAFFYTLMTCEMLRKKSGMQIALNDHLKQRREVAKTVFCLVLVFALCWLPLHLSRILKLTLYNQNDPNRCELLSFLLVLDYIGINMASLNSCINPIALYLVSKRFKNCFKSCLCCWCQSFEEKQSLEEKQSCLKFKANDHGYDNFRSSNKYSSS

For experiment [5], the target named is T2, Muscarinic acetylcholine receptor M2 (Homo sapiens, UniProt P08172).
T2 sequence (P08172 whole entry): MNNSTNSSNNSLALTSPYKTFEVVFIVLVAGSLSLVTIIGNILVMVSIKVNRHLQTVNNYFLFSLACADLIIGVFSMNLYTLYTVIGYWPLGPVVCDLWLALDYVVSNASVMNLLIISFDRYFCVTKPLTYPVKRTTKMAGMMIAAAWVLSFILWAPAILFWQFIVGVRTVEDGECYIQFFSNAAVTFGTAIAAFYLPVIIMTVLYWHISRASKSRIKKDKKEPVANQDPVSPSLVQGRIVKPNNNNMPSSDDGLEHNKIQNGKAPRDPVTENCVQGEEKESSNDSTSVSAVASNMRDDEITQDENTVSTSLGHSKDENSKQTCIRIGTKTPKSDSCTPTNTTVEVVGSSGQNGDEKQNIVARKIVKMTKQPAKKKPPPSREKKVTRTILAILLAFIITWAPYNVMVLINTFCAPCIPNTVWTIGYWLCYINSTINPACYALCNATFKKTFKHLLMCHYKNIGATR

The target of experiment [6] is T3, Alpha-1A adrenergic receptor (Homo sapiens, UniProt P35348).
T3 sequence (P35348 whole entry): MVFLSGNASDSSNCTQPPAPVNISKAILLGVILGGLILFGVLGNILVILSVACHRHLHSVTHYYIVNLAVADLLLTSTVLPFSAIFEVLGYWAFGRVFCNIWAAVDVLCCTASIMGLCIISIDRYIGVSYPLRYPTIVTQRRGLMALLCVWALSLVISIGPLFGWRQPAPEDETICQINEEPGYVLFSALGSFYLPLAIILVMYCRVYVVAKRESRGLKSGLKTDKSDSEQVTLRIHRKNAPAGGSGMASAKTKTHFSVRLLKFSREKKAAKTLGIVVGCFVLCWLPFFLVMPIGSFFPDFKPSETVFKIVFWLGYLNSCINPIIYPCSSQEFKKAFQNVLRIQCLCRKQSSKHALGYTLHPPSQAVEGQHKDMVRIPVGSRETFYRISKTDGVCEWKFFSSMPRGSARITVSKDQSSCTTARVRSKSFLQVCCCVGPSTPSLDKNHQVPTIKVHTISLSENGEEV

Experiment [7] concerns the target Beta-2 adrenergic receptor (Homo sapiens, UniProt P07550). Type of experiment: functional, cell-based.
The target in a further experiment is T4, Androgen receptor (Rattus norvegicus, UniProt P15207).
T4 sequence (P15207 whole entry): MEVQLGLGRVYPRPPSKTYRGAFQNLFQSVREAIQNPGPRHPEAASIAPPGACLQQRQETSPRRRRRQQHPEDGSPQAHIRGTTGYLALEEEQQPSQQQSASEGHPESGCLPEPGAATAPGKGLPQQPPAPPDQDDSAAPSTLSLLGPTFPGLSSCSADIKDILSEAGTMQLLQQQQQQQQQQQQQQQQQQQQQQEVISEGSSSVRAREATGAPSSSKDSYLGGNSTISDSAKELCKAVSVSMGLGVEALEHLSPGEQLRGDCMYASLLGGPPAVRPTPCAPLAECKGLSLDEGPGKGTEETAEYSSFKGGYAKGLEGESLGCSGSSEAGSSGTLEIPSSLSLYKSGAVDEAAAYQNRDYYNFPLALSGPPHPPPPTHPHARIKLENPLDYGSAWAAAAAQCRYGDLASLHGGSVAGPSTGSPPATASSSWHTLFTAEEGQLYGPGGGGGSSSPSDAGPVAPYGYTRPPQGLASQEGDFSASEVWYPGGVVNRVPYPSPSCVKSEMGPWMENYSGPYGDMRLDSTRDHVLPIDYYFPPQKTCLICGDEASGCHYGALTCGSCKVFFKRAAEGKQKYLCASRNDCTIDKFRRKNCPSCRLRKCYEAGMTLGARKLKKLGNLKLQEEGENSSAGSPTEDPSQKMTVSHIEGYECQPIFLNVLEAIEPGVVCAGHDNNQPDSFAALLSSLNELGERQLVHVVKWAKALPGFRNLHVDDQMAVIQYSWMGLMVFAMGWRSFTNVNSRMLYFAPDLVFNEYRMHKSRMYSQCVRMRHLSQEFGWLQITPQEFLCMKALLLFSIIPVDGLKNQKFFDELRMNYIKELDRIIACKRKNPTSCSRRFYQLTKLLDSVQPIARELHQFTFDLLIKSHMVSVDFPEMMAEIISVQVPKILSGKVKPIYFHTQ
Type of experiment: functional.
Also: assay procedure not described here.

Sequence of Melanocortin receptor 4 (P32245 whole entry): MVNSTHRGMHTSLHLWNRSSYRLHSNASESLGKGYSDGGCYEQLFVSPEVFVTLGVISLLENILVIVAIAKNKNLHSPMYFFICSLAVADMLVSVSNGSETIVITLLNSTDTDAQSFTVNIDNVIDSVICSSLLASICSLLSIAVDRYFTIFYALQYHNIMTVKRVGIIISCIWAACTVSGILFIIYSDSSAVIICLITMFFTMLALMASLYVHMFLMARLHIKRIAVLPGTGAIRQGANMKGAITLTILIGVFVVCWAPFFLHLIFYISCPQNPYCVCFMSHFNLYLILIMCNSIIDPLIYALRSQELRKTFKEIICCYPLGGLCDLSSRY
Sequence of 5-hydroxytryptamine receptor 2B (P41595 whole entry): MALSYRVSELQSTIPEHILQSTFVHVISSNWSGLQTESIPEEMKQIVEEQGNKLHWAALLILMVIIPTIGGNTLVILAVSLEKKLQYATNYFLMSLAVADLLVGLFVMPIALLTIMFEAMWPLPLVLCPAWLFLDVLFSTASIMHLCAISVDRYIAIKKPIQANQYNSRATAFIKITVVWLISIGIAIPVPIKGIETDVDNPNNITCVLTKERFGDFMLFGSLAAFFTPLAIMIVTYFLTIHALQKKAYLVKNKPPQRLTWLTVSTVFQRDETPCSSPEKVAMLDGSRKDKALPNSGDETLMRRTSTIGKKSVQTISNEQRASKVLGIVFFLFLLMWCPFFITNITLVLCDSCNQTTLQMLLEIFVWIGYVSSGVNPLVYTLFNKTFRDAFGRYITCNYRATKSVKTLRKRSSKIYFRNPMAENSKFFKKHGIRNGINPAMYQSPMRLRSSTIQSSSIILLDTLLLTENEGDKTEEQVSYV
Sequence of Mu-type opioid receptor (P35372 whole entry): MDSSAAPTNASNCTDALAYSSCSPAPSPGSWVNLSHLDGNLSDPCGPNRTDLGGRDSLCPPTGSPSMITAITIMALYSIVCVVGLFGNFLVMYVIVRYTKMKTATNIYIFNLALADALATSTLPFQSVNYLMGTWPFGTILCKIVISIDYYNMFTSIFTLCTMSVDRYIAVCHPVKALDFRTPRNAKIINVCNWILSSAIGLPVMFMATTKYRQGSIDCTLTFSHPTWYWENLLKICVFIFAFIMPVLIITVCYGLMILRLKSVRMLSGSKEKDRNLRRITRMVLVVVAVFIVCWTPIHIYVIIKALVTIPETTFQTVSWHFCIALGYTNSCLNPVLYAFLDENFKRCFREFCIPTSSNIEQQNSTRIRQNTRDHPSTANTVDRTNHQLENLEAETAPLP
Sequence of Beta-2 adrenergic receptor (P07550 whole entry): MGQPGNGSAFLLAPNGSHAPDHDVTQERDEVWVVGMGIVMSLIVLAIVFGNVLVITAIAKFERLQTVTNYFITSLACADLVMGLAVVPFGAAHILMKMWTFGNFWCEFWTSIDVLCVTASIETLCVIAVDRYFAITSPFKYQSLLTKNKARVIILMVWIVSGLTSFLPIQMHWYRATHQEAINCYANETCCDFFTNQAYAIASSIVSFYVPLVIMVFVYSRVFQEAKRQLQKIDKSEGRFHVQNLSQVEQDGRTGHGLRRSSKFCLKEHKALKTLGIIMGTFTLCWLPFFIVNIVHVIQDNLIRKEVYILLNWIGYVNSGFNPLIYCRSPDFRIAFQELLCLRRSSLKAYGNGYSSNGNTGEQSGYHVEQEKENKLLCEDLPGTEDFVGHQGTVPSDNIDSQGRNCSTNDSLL
Sequence of Cannabinoid receptor 1 (P21554 whole entry): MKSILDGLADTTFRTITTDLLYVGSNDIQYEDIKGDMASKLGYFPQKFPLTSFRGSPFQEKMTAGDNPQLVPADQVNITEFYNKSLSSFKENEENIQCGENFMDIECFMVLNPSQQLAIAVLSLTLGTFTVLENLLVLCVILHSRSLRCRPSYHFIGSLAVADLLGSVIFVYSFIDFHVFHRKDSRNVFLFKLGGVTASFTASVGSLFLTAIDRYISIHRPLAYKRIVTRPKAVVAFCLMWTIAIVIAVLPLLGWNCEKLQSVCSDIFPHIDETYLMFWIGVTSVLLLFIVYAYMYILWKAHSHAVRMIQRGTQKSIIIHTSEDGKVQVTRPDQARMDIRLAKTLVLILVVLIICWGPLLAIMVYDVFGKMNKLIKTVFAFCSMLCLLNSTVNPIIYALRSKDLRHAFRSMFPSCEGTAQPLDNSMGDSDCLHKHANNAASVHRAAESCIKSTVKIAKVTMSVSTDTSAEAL

As for `COc1ccc2cccc(CCNC(C)=O)c2c1` [AGOMELATINE], the AC50 is 0.879 µM in [1]; above 30 µM in experiment [2]; above 30 µM in [3]; above 30 µM in experiment [4]; above 10 µM on Cannabinoid receptor 1; above 30 µM at Melanocortin receptor 4. Besides, the AC50 was above 30 µM at Mu-type opioid receptor, above 10 µM in experiment [5] and above 10 µM in [6].
As for `CN1CCc2cccc3c2[C@H]1Cc1ccc(O)c(O)c1-3` [APOMORPHINE], the AC50 in [1] was 1.27 µM; in [2], above 30 µM; in experiment [3] it was above 30 µM; in experiment [4] it was above 30 µM; on Cannabinoid receptor 1 it was above 10 µM; at Melanocortin receptor 4 it was above 30 µM. The AC50 on Mu-type opioid receptor is above 30 µM; in experiment [7] it was above 30 µM; in [5] it was above 10 µM; in experiment [6], above 10 µM.
With `NC(CO)C(=O)NNCc1ccc(O)c(O)c1O` (centres undefined) [BENSERAZIDE], the concentration at half-maximal activity (AC50) in [1] was above 10 µM; in [2] it was above 30 µM; in [3] it was above 30 µM; in experiment [4] it was above 30 µM; at Cannabinoid receptor 1, above 10 µM; at Melanocortin receptor 4 it was above 30 µM. In addition, the AC50 is above 10 µM at Mu-type opioid receptor, above 30 µM in experiment [7], above 10 µM in experiment [5] and above 10 µM in experiment [6].
As to `CN(C)C(=O)OC1N=C(c2ccccc2)c2cc(Cl)ccc2N(C)C1=O` (centres undefined) [CAMAZEPAM], the concentration at half-maximal activity (AC50) in [1] is above 10 µM; in [2], above 30 µM; in experiment [3] it was above 30 µM; in experiment [4], above 30 µM; on Cannabinoid receptor 1 it was above 10 µM; on Melanocortin receptor 4, above 30 µM. Besides, the AC50 is above 10 µM on Mu-type opioid receptor, above 30 µM in [7], above 10 µM in experiment [5] and above 10 µM in experiment [6].
On to `CN[C@@H](C)[C@H](O)c1ccccc1` [EPHEDRINE], for which the AC50 in experiment [1] is above 10 µM; in experiment [2], above 30 µM; in experiment [3], above 30 µM; in [4], above 30 µM; on Cannabinoid receptor 1 it was above 10 µM; at Melanocortin receptor 4, above 30 µM. The AC50 at Mu-type opioid receptor was above 30 µM; in experiment [7] it was above 30 µM; in experiment [5] it was above 10 µM; in [6] it was above 10 µM.
As to `CCNC(C)Cc1cccc(C(F)(F)F)c1` (centres undefined) [FENFLURAMINE], the AC50 is above 30 µM in [2]; above 30 µM in [3]; above 30 µM in [4]; above 10 µM on Cannabinoid receptor 1; above 30 µM at Melanocortin receptor 4; above 30 µM on Mu-type opioid receptor. In [5], this compound yielded an AC50 above 10 µM.
With `O=C1CN=C(c2ccccc2)c2cc(Cl)ccc2N1CC(F)(F)F` [HALAZEPAM], the AC50 (at Androgen receptor; in experiment [7]) was above 30 µM in each case.
Regarding `CC(C)[N+](C)(CCC(C(N)=O)(c1ccccc1)c1ccccc1)C(C)C` [ISOPROPAMIDE], the half-maximal activity concentration (AC50) was above 10 µM at Cannabinoid receptor 1; above 10 µM at Melanocortin receptor 4; above 30 µM at Mu-type opioid receptor; 0.012 µM in experiment [5]; above 10 µM in experiment [6].
Take `Cc1cc(-c2ccccc2)nnc1NCCN1CCOCC1` [MINAPRINE]: the half-maximal activity concentration (AC50) in experiment [1] was 1.4 µM; in [2], above 30 µM; in [3] it was above 30 µM; in [4] it was above 30 µM; on Cannabinoid receptor 1, 9.5 µM; on Melanocortin receptor 4, above 30 µM. In addition, the AC50 on Mu-type opioid receptor was above 30 µM; in experiment [7], above 30 µM; in [5], above 10 µM; in experiment [6], above 10 µM.
As to `NC(=O)C[S+]([O-])C(c1ccccc1)c1ccccc1` (centres undefined) [MODAFINIL], the half-maximal activity concentration (AC50) in experiment [1] is above 10 µM; in experiment [2] it was above 30 µM; in [3], above 30 µM; in [4], 23.5 µM; on Cannabinoid receptor 1, above 10 µM; on Melanocortin receptor 4, 24.1 µM. The AC50 on Mu-type opioid receptor was above 10 µM; in experiment [7], above 30 µM; in [5], above 10 µM; in experiment [6], above 10 µM.
In the case of `CN1CCCN=C1COC(=O)C(O)(c1ccccc1)C1CCCCC1` (centres undefined) [OXYPHENCYCLIMINE], the AC50 at Cannabinoid receptor 1 was above 10 µM; at Melanocortin receptor 4, above 10 µM; on Mu-type opioid receptor, above 30 µM; in experiment [5], 0.0263 µM; in [6], above 10 µM.
On to `O=C(O)CCCc1ccccc1` [PHENYLBUTANOIC ACID], for which the AC50 in experiment [1] was above 10 µM; in experiment [2], above 30 µM; in experiment [3] it was above 30 µM; in experiment [4] it was above 30 µM; on Cannabinoid receptor 1 it was above 30 µM; on Melanocortin receptor 4, above 10 µM. Moreover, the AC50 was above 10 µM on Mu-type opioid receptor, above 10 µM in [5] and 14 µM in experiment [6].
As for `Cc1c(C(=O)Nc2ccc(N3C[C@@H](C)O[C@@H](C)C3)nc2)cccc1-c1ccc(OC(F)(F)F)cc1` [SONIDEGIB], the half-maximal activity concentration (AC50) was above 10 µM in experiment [1]; above 30 µM in [2]; above 30 µM in experiment [3]; above 30 µM in experiment [4]; above 10 µM at Cannabinoid receptor 1; above 30 µM at Melanocortin receptor 4. Also, the AC50 (on Mu-type opioid receptor; in experiment [5]) was above 10 µM each time.
Consider `COc1ccc(C(=O)N2CCN(c3ccc4c(c3)CCC(=O)N4)CC2)cc1OC` [VESNARINONE], for which the values for the AC50 (at Androgen receptor; in experiment [7]) were 2.5 µM and above 30 µM, respectively.
Consider `Cc1ccc(-c2nc3ccc(C)cn3c2CC(=O)N(C)C)cc1` [ZOLPIDEM], for which the AC50 in experiment [1] was above 10 µM; in experiment [2] it was above 30 µM; in experiment [3], above 30 µM; in experiment [4], above 30 µM; on Cannabinoid receptor 1 it was above 30 µM; at Melanocortin receptor 4, above 30 µM. Also, the AC50 at Mu-type opioid receptor is above 10 µM; in experiment [7], above 30 µM; in [5], above 10 µM; in [6], 6.76 µM.
Consider `CN1CCN(C(=O)OC2c3nccnc3C(=O)N2c2ccc(Cl)cn2)CC1` (centres undefined) [ZOPICLONE], for which the AC50 was above 10 µM in experiment [1]; above 30 µM in experiment [2]; above 30 µM in experiment [3]; above 30 µM in experiment [4]; above 30 µM at Melanocortin receptor 4; above 10 µM at Mu-type opioid receptor. For the same compound, the AC50 in experiment [6] was above 10 µM.
